Assay results reported in ChEMBL document CHEMBL1828625, “4-benzimidazolyl-3-phenylbutanoic acids as novel PIF-pocket-targeting allosteric inhibitors of protein kinase PKCζ” (J Med Chem, 2011).
Active and inactive are the calls of the source. The rule behind the calls is not given here.

Tests used:
[1] = molecular target: Ribosomal protein S6 kinase beta-1 (Homo sapiens) (UniProt P23443); assay: Inhibition of S6K1 at 50 uM
[2] = molecular target: 3-phosphoinositide-dependent protein kinase 1 (Homo sapiens) (UniProt O15530); assay: Activation of PDK1 at 50 uM
[3] = molecular target: T1, Protein kinase C zeta type (Homo sapiens, UniProt Q05513); assay: Inhibition of PKCzeta in human U937 cells assessed as inhibition of TNF-alpha-induced NF-kB activation by luciferase reporter gene assay; assay type: cell-based, U-937
T1 sequence (Q05513 whole entry): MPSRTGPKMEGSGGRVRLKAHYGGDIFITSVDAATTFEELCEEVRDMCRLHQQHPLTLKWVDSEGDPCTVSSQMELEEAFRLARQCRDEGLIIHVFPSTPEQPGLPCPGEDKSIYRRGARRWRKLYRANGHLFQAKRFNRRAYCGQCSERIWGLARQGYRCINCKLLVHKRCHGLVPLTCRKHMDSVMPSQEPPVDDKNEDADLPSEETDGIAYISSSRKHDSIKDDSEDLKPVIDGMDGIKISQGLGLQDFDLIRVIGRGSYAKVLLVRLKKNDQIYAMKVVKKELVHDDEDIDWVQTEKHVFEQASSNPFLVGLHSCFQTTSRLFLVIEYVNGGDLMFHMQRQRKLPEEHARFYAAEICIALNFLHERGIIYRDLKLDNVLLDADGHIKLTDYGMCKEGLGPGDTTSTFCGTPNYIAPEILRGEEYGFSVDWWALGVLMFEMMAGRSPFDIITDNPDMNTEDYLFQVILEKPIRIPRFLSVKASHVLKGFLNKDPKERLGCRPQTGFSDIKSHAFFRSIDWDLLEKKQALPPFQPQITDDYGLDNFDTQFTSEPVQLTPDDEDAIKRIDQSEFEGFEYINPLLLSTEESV

[4] = molecular target: T1, Protein kinase C zeta type; assay: Inhibition of human PKCzeta assessed as [gamma32P]ATP utilization using myelin basic protein as substrate
[5] = molecular target: T2, Protein kinase C iota type (Homo sapiens) (UniProt P41743); assay: Inhibition of PKCiota at 50 uM
T2 sequence (whole entry): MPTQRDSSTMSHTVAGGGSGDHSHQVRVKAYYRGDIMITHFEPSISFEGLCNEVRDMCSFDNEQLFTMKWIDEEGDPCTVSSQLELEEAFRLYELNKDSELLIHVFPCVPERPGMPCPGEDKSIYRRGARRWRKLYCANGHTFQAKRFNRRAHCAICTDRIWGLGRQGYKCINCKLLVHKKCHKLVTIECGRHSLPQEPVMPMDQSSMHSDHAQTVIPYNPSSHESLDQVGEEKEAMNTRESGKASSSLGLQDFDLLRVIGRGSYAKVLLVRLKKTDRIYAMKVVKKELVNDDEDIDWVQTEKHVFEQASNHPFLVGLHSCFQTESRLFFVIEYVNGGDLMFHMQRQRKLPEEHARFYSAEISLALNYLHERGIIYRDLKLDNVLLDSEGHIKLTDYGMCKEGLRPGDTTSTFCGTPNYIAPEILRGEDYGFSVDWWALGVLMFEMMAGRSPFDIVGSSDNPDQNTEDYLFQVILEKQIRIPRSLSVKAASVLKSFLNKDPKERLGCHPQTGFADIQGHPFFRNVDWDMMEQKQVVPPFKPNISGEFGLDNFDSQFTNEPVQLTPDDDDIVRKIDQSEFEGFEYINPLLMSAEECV

[6] = molecular target: T2, Protein kinase C iota type (Homo sapiens); assay: Inhibition of PKCiota at 200 uM
[7] = molecular target: T3, Serine/threonine-protein kinase Sgk1 (Homo sapiens) (UniProt O00141); assay: Inhibition of SGK at 50 uM
T3 sequence (whole entry): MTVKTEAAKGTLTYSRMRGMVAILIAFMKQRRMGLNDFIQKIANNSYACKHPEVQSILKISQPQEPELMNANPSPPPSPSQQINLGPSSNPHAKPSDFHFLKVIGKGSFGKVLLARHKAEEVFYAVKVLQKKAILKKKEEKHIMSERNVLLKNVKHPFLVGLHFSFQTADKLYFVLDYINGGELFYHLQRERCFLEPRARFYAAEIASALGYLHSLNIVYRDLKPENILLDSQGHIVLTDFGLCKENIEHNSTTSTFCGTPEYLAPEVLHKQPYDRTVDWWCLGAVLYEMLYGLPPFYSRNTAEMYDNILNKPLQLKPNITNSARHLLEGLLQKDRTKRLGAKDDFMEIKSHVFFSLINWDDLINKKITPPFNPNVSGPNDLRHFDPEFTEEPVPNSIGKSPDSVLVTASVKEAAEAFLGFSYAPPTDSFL

[8] = Inhibition of PKA at 50 uM
[9] = molecular target: Serine/threonine-protein kinase N2 (Homo sapiens) (UniProt Q16513); assay: Inhibition of PRK2 at 50 uM
[10] = molecular target: RAC-alpha serine/threonine-protein kinase (Homo sapiens) (UniProt P31749); assay: Inhibition of PKB-alpha at 50 uM
Sequence of RAC-alpha serine/threonine-protein kinase (Homo sapiens) (P31749 whole entry): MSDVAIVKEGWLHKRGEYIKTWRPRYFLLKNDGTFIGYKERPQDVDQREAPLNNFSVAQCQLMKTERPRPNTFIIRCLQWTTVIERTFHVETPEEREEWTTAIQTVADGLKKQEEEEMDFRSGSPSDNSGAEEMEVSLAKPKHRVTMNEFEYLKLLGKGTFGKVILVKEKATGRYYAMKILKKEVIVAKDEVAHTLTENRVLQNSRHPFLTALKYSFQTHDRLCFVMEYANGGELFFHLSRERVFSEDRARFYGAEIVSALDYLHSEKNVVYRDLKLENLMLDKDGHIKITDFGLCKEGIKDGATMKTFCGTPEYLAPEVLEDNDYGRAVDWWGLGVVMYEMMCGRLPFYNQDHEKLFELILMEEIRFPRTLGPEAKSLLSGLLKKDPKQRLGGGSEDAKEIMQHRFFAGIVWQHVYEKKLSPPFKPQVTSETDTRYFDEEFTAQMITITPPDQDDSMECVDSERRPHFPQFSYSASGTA

Sequence of Ribosomal protein S6 kinase beta-1 (Homo sapiens) (P23443 whole entry, looked up): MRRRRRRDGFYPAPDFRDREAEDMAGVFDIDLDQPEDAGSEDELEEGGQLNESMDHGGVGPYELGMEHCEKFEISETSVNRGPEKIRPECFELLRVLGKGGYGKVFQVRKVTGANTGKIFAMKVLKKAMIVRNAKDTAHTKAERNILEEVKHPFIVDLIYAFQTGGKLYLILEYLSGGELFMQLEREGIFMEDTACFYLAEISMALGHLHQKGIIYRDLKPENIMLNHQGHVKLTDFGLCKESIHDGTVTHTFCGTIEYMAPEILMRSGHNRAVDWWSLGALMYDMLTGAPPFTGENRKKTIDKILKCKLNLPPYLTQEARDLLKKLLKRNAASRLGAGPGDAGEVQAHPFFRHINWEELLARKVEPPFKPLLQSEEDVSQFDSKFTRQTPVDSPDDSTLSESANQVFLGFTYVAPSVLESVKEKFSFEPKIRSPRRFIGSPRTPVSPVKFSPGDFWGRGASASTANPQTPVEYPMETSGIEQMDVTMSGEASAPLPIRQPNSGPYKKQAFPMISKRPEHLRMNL
Sequence of 3-phosphoinositide-dependent protein kinase 1 (Homo sapiens) (O15530 whole entry, looked up): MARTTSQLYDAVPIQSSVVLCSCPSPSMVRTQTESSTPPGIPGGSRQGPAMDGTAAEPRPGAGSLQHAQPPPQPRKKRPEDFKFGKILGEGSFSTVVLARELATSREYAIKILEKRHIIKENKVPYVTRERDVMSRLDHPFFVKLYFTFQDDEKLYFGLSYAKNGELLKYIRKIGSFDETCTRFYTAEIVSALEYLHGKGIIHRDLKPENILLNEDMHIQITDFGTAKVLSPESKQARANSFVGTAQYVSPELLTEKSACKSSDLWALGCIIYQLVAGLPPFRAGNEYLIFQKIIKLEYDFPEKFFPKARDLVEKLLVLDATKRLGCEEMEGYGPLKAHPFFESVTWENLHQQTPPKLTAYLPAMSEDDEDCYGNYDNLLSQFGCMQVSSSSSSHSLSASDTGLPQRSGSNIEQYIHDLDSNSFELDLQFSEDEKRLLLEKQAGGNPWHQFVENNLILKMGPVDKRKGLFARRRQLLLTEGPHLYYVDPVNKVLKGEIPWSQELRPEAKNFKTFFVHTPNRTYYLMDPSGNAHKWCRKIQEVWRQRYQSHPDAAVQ
Sequence of Serine/threonine-protein kinase N2 (Homo sapiens) (Q16513 whole entry, looked up): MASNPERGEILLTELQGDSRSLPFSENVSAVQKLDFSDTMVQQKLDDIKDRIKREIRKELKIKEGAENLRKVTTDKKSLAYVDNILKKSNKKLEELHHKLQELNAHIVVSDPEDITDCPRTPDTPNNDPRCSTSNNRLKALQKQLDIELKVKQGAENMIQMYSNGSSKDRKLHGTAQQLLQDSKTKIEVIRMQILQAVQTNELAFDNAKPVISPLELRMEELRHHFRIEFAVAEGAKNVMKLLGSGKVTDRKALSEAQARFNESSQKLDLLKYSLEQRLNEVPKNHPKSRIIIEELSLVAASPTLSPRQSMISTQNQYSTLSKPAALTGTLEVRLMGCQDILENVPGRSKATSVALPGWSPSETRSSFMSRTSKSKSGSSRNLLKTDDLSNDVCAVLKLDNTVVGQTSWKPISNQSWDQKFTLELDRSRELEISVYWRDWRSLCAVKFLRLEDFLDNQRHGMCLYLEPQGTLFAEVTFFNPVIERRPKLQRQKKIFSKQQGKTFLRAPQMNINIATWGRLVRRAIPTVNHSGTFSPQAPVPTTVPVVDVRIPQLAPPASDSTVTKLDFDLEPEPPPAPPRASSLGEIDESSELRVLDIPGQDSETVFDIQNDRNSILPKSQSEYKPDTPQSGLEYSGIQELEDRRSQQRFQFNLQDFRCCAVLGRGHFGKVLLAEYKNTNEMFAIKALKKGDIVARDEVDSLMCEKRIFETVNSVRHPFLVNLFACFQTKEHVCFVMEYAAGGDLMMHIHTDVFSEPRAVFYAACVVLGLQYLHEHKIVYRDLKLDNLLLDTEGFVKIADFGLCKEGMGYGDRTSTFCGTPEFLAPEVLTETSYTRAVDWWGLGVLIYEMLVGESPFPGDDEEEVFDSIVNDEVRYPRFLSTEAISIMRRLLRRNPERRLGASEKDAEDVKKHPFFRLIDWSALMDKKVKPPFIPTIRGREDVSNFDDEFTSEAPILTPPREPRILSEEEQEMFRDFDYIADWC

## O=C(O)CC(Cc1nc2cc(-c3ccccc3)ccc2[nH]1)c1ccc(Cl)cc1 (racemic)
[1]
  inhibition: 60%

## O=C(O)CC(Cc1nc2cc(Cl)ccc2[nH]1)c1ccc(Cl)cc1Cl (racemic)
[2]
  fold change (FC): 3

## O=C(O)CC(Cc1nc2cc(Cl)c(F)cc2[nH]1)c1ccc(Cl)cc1 (racemic)
[2]
  fold change (FC): 3

## CC(C)(C)c1ccc(C(CC(=O)O)Cc2nc3ccc(I)cc3[nH]2)cc1 (racemic)
[3]
  IC50: 13 µM
[4]
  IC50: 23 µM

## CCCc1ccc(C(CC(=O)O)Cc2nc3cc(I)ccc3[nH]2)cc1 (racemic)
[5]
  inhibition: inactive
[6]
  inhibition: inactive
[7]
  inhibition: Active
[1]
  inhibition: 60%
[8]
  inhibition: Active
[9]
  inhibition: Active
[10]
  inhibition: Active

## CC(C)(C)c1ccc(C(CC(=O)O)Cc2nc3cc(I)ccc3[nH]2)cc1 (racemic)
[7]
  inhibition: 30%
